US11529361B2, “Halogenated salicylanilides for treating Clostridium infections” (UNION therapeutics A/S, priority 2015, dated 2022)
In brackets after ≈: the same amount, converted by molar mass. Where two headings read alike, the source gives them in different places.

Legend:
[1] = test system: 24 clinical isolate strains of C. difficile; assay: Additional MIC determinations, antibacterial activity by OD600 (Example 3); format: cell-based, Clostridium difficile
[2] = test system: Clostridium difficile 7-6011209; format: cell-based
mice = details: p.o.; cited from earlier work
rats = details: p.o., cited from earlier work
[3] = test system: C. difficile clinical isolates; assay: MIC determination by microbroth dilution per CLSI guideline (Example 1); format: cell-based, Clostridium difficile; details: Clostridioides difficile
C. difficile = details: published data (footnote a); cited from earlier work
[4] = Table 3, strain 7-6011209, read-out: C. difficile Strain 7-6011209 MIC
[5] = Table 3, strain 12055, read-out: C. difficile Strain 12055 MIC

SMILES | MIC ([1]; strain 7-5085357 (ST028)) [µg/mL] | MIC ([1]; strain 7-6011209 (ST002)) [µg/mL] | MIC ([1]; strain 7-6778909 (ST016)) [µg/mL] | MIC ([1]; strain 7-6854508 (ST013)) [µg/mL] | MIC ([1]; strain 7-6870430 (ST001)) [µg/mL] | MIC ([1]; strain 7-7104022 (ST103)) [µg/mL] | MIC ([1]; strain 7-7116411 (ST005)) [µg/mL] | MIC ([1]; strain 7-7124449 (ST009)) [µg/mL] | MIC ([1]; strain 7-7149204 (ST006)) [µg/mL] | MIC ([1]; strain 7-7150288 (ST003)) [µg/mL] | MIC ([1]; strain 7-7150318 (ST059)) [µg/mL] | MIC ([1]; strain 7-7150628 (ST034)) [µg/mL] | MIC ([1]; strain 7-7150997 (ST049)) [µg/mL] | MIC ([1]; strain 7-7154992 (ST139)) [µg/mL] | MIC ([1]; strain 7-7200552 (ST017)) [µg/mL] | MIC ([1]; strain 12055) [µg/mL] | MIC ([1]; strain 12060) [µg/mL] | MIC ([1]; strain 12061) [µg/mL] | MIC ([1]; strain 12063) [µg/mL] | MIC ([1]; strain 12064) [µg/mL] | other results
O=C(Nc1ccc(Oc2ccc(Cl)cc2)c(Cl)c1)c1cc(I)cc(I)c1O [Rafoxanide] | 0.016 (≈ 0.0256 µM) | < 0.008 | < 0.008 | < 0.008 | < 0.008 | < 0.008 | 0.031 (≈ 0.0495 µM) | 0.031 (≈ 0.0495 µM) | < 0.008 | < 0.008 | < 0.008 | 0.31 (≈ 0.495 µM) | < 0.008 | 0.016 (≈ 0.0256 µM) | 0.063 (≈ 0.101 µM) | < 0.008 | 0.031 (≈ 0.0495 µM) | 0.016 (≈ 0.0256 µM) | < 0.008 | < 0.008 | MIC ([1]; strain 12062): 0.016 µg/mL (≈ 0.0256 µM); MIC ([1]; strain 12065): 0.016 µg/mL (≈ 0.0256 µM); MIC ([1]; strain 12066): 0.063 µg/mL (≈ 0.101 µM); formation of heat-resistant spores over time [2]: suppressed formation of spores throughout the 96 hour study period; LD50 (mice): 232 to 300 mg/kg; LD50, median (rats; median over studies): > 1490 mg/kg; MIC ([3]; read-out: C. difficile Strain 7-6011209 MIC): < 0.08 µg/mL; MIC ([3]; read-out: C. difficile Strain 12055 MIC): < 0.08 µg/mL
O=C(Nc1cc(Cl)cc(Cl)c1O)c1c(O)c(Cl)cc(Cl)c1Cl [Oxyclozanide] | 0.016 (≈ 0.0399 µM) | < 0.008 | < 0.008 | < 0.008 | < 0.008 | < 0.008 | 0.125 (≈ 0.311 µM) | 0.031 (≈ 0.0772 µM) | < 0.008 | < 0.008 | 0.016 (≈ 0.0399 µM) | 0.31 (≈ 0.772 µM) | < 0.008 | < 0.008 | 0.25 (≈ 0.623 µM) | 0.016 (≈ 0.0399 µM) | 0.031 (≈ 0.0772 µM) | 0.016 (≈ 0.0399 µM) | 0.016 (≈ 0.0399 µM) | < 0.008 | MIC ([1]; strain 12062): < 0.008 µg/mL; MIC ([1]; strain 12065): 0.031 µg/mL (≈ 0.0772 µM); MIC ([1]; strain 12066): 0.125 µg/mL (≈ 0.311 µM); LD50 (rats): 980 to 3519 mg/kg; MIC [3, 4]: 0.25 µg/mL (≈ 0.623 µM); MIC [3, 5]: 0.25 µg/mL (≈ 0.623 µM)
Cc1ncc([N+](=O)[O-])n1CCO [Metronidazole] | 1 (≈ 5.84 µM) | 0.031 (≈ 0.181 µM) | 0.25 (≈ 1.46 µM) | 1 (≈ 5.84 µM) | 1 (≈ 5.84 µM) | > 8 | > 16 | 2 (≈ 11.7 µM) | 0.5 (≈ 2.92 µM) | 0.063 (≈ 0.368 µM) | 1 (≈ 5.84 µM) | 0.5 (≈ 2.92 µM) | 0.031 (≈ 0.181 µM) | 1 (≈ 5.84 µM) | 2 (≈ 11.7 µM) | 1 (≈ 5.84 µM) | 1 (≈ 5.84 µM) | 1 (≈ 5.84 µM) | 0.25 (≈ 1.46 µM) | 0.031 (≈ 0.181 µM) | MIC ([1]; strain 12065): 1 µg/mL (≈ 5.84 µM); MIC ([1]; strain 12066): 1 µg/mL (≈ 5.84 µM); Highest MIC observed (C. difficile): >32^a μg/mL; MIC90 (C. difficile): 1^a μg/mL
CC(=O)Oc1c(I)cc(I)cc1C(=O)Nc1ccc(Cl)cc1 [Clioxanide] | < 0.008 | < 0.008 | < 0.008 | < 0.008 | < 0.008 | < 0.008 | 0.125 (≈ 0.231 µM) | < 0.008 | < 0.008 | < 0.008 | < 0.008 | < 0.008 | < 0.008 | < 0.008 | < 0.008 | < 0.008 | < 0.008 | < 0.008 | < 0.008 | < 0.008 | MIC ([1]; strain 7-7363761 (ST008)): < 0.008 µg/mL; MIC ([1]; strain 12062): < 0.008 µg/mL; MIC ([1]; strain 12065): < 0.008 µg/mL; MIC ([1]; strain 12066): 0.063 µg/mL (≈ 0.116 µM); MIC [3, 4]: 0.031 µg/mL (≈ 0.0572 µM); MIC [3, 5]: < 0.08 µg/mL
